# Activity calls are given as the source filed them.
# Assays:
# [1] = A cytotoxicity screen of small molecule inhibitors of the PhoP region in Salmonella typhi identified in the primary screen. [Related pubchem assays: 1850, 1864, 1985 ]; type: functional
# [2] = Counterscreen for IDE inhibitors: Luminescence-based cell-based high throughput dose response assay to identify compounds that are cytotoxic to HEK cells. [Related pubchem assays: 434962 (Primary screen (IDE inhibitors in singlicate)), 449730 (Counterscreen (Cytotoxicity in triplicate)), 435028 (Confirmation (IDE inhibitors in triplicate)) …; type: functional; settings: HEK293
# Insulin-degrading enzyme = biological target: T1, Insulin-degrading enzyme (Homo sapiens, UniProt P14735); assay: Dose Response: Fluorescence polarization-based cell-based high throughput dose response assay for inhibitors of insulin-degrading enzyme (IDE). [Related pubchem assays: 434962 (Primary screen (IDE inhibitors in singlicate)), 449730 (Counterscreen (Cytotoxicity in triplicate)), 435028 (Confirmation (IDE inhibitors in triplicate)), 434984 (Summary …; type: functional
# T1 sequence (P14735 whole entry): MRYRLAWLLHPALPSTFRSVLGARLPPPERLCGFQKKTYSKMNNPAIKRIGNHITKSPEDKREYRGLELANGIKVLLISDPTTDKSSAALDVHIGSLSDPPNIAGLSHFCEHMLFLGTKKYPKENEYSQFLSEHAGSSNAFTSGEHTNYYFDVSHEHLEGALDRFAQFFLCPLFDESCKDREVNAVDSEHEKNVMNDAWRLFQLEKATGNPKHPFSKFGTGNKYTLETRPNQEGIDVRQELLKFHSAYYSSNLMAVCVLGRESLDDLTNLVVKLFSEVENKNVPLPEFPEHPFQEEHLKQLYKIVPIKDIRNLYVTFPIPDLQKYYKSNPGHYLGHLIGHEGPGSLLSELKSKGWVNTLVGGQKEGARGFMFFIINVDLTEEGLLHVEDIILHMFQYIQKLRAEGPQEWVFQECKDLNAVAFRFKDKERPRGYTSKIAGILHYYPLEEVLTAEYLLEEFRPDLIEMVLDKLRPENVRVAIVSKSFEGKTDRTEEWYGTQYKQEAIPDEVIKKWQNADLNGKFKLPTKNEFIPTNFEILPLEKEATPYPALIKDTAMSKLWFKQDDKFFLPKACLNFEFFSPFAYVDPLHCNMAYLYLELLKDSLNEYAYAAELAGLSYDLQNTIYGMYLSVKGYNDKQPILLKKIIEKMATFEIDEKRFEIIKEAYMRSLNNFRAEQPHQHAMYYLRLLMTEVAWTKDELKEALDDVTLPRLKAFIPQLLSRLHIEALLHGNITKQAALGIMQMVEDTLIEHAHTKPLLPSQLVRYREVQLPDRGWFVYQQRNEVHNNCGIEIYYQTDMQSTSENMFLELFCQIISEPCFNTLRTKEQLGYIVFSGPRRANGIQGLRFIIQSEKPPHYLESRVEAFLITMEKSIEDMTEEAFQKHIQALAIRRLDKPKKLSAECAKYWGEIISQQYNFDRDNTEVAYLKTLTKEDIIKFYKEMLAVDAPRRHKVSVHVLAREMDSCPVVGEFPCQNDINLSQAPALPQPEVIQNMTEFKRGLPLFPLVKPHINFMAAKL
# [3] = biological target: T2, Lysosomal acid glucosylceramidase (Homo sapiens, UniProt P04062); assay: Dose response cell-based high throughput screening assay to identify enhancers of beta-glucosidase activity. [Related pubchem assays: 784 ]; type: functional
# T2 sequence (P04062 whole entry): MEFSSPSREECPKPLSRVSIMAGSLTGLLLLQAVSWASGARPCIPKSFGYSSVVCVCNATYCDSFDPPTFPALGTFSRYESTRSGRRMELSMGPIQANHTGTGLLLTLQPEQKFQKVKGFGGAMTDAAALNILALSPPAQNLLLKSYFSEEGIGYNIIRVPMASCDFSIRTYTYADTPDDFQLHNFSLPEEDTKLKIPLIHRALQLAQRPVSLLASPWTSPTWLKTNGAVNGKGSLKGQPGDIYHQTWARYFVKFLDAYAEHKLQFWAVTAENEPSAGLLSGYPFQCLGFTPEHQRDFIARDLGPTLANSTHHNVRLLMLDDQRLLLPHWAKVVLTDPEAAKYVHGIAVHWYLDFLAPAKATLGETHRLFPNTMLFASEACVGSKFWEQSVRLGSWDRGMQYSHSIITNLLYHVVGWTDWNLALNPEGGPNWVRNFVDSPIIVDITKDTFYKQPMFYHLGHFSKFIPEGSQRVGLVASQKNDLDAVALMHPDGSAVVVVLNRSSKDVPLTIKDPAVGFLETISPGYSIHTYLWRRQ
# Estrogen receptor beta [4] = biological target: T3, Estrogen receptor beta (Homo sapiens, UniProt Q92731); assay: ERβ–SRC-3 coactivator interaction inhibitors, confirmation, orthogonal assay, biochemical, ELISA, streptavidin-HRP readout (AID 1060)
# T3 sequence (Q92731 whole entry, the tested form may be a part): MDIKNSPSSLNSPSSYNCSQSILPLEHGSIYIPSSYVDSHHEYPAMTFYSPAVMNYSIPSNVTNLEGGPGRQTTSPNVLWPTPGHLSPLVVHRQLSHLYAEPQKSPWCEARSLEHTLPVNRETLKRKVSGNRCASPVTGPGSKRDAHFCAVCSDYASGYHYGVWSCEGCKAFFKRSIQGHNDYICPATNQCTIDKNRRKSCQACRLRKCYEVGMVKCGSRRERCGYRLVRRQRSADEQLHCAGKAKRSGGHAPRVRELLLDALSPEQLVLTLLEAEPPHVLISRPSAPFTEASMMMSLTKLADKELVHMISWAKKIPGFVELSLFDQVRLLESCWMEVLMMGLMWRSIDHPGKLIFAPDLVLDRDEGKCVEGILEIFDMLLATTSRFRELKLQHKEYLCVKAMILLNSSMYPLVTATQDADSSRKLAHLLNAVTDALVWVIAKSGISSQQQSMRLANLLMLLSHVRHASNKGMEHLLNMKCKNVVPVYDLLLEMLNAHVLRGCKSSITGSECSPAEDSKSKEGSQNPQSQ
# [5] = biological target: T4, Carboxy-terminal domain RNA polymerase II polypeptide A small phosphatase 1 (Homo sapiens, UniProt Q9GZU7); assay: inhibitors of CTDSP1, concentration-response testing, biochemical assay, absorbance-based, actives from ultra-high-throughput screening (AID 540297); type: functional
# T4 sequence (Q9GZU7 whole entry): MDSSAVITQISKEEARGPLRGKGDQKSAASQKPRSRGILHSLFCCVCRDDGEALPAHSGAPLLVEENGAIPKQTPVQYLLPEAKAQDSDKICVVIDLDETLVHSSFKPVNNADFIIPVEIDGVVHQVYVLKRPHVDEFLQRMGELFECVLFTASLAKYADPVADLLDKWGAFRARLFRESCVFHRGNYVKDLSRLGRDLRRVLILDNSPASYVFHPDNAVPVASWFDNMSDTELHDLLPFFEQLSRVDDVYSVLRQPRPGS
# Estrogen receptor beta [6] = biological target: T3, Estrogen receptor beta
# [7] = tested on: Streptococcus sp. 'group A'; assay: growth inhibition of control SK(-) GAS strain, dose response, counter-screen for streptokinase expression inhibitor project, luminescence, kanamycin, BacTiterGlo, confirmation (AID 1900); type: functional, organism-based
# Streptokinase A = biological target: T5, Streptokinase A (Streptococcus pyogenes serotype M1, UniProt P10520); assay: S. pyogenes streptokinase expression inhibitors, potency, dose response, plasminogen activation absorbance, OD405 (AID 1914); type: functional, Streptococcus pyogenes M1 GAS;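 note: secreted streptokinase activity via plasminogen activation per viability signal from cell pellet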
# T5 sequence (P10520 whole entry): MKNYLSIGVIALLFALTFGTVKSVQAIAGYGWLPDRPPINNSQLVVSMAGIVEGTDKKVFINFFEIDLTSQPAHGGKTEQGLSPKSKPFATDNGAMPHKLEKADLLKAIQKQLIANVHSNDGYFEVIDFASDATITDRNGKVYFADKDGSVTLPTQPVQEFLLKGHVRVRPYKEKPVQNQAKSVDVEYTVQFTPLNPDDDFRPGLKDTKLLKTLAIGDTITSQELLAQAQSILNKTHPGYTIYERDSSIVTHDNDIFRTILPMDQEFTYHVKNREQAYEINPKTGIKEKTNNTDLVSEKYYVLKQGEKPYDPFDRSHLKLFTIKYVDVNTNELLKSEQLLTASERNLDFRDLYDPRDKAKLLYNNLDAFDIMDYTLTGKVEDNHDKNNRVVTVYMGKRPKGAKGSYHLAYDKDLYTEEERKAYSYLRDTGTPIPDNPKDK
# Streptococcus = assay: Group A Streptococcus viability loss, dose response, counter-screen for streptokinase expression inhibitor project, luminescence, BacTiterGlo (AID 1915); type: functional, organism-based;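 note: potency for reduction of bacterial viability or growth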
# [8] = biological target: Induced myeloid leukemia cell differentiation protein Mcl-1 (Homo sapiens, UniProt Q07820); type: functional
# Chain of Induced myeloid leukemia cell differentiation protein Mcl-1 (Q07820 whole entry): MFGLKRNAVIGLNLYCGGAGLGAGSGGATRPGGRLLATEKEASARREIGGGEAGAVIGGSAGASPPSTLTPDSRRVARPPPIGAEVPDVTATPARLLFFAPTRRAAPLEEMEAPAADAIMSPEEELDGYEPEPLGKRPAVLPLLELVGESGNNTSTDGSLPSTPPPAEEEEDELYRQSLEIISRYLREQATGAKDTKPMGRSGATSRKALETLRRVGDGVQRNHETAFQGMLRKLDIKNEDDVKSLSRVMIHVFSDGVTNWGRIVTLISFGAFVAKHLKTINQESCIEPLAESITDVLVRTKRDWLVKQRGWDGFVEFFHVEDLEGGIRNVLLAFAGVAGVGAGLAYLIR
# Mucolipin-3 = biological target: T6, Mucolipin-3 (Homo sapiens, UniProt Q8TDD5); assay: Dose response cell-based high-throughput screening assay for agonists of the transient receptor potential channel ML3 (TRPML3). [Related pubchem assays: 1526, 1424, 1448 ]; type: functional
# T6 sequence (Q8TDD5 whole entry): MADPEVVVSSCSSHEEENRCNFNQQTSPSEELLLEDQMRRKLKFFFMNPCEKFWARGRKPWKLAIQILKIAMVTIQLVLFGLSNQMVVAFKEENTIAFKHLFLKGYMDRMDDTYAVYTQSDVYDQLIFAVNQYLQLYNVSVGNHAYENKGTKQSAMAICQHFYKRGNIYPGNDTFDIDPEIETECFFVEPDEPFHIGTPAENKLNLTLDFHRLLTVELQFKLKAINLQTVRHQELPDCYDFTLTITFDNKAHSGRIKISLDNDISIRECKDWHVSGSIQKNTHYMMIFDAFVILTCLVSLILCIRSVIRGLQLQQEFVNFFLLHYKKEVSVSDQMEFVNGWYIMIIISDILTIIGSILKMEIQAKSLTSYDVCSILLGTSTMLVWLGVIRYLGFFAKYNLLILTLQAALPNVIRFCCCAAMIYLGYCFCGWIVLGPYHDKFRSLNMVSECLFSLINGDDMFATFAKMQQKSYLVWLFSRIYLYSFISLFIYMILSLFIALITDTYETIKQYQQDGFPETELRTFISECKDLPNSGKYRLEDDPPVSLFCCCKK
# Ion channel NompC = Ion channel NompC (Danio rerio, UniProt Q7T1G6); assay: Fluorescence counterscreen assay for TRPML3 agonists: dose response cell-based high-throughput screening assay to identify agonists of the transient receptor potential channel N1 (TRPN1). [Related pubchem assays: 1526, 1424, 1448 ]; type: functional
# Chain of Ion channel NompC (Q7T1G6 whole entry): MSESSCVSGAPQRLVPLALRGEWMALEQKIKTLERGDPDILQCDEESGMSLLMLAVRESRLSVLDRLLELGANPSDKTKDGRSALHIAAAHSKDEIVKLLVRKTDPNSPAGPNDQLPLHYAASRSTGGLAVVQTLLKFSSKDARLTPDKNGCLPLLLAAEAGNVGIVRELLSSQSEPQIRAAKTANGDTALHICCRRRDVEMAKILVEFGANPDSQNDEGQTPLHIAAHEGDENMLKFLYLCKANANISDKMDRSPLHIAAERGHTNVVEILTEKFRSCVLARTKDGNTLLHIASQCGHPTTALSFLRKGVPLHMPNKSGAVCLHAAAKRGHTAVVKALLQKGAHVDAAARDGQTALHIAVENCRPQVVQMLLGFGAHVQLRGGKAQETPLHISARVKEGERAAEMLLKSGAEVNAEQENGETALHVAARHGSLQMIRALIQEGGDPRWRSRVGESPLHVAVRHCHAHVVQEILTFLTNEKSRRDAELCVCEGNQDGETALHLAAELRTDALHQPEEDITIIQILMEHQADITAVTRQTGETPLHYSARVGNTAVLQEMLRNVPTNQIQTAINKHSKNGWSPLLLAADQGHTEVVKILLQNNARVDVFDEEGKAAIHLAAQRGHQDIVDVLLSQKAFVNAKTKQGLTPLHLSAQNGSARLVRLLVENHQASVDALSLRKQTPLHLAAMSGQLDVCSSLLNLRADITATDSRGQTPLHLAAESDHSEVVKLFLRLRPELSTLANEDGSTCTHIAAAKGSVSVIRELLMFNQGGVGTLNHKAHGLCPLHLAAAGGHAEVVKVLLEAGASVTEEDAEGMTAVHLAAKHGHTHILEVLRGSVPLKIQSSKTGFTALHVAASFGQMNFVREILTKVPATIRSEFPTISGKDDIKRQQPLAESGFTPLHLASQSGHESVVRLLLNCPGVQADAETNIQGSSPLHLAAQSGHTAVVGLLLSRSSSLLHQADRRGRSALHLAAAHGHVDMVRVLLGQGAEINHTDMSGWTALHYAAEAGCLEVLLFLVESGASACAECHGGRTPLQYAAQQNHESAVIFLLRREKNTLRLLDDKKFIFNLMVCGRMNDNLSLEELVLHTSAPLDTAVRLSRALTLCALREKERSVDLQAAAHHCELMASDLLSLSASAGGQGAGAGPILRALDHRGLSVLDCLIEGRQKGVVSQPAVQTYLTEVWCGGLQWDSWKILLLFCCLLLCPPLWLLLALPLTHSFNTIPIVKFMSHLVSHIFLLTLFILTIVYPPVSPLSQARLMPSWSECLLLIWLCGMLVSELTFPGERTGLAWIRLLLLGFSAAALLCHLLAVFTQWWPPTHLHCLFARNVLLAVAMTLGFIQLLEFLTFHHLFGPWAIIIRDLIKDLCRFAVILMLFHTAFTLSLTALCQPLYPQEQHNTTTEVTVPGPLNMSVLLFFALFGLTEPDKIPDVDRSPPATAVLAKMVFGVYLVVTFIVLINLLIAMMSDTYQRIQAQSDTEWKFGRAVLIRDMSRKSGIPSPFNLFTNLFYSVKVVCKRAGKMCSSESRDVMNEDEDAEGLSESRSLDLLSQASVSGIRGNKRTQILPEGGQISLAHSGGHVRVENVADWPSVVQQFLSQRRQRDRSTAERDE
# Prothrombin = Prothrombin (Homo sapiens, UniProt P00734); assay: Thrombin 1536 HTS Dose Response Confirmation. [Related pubchem assays: 1046 (Thrombin 1536 HTS; hits were confirmed in this assay)]; type: functional
# [9] = biological target: T7, Ubiquitin carboxyl-terminal hydrolase BAP1 (Homo sapiens, UniProt Q92560); assay: BAP1 deubiquitinase inhibitors, dose response, biochemical (AID 714); type: functional
# T7 sequence (Q92560 whole entry): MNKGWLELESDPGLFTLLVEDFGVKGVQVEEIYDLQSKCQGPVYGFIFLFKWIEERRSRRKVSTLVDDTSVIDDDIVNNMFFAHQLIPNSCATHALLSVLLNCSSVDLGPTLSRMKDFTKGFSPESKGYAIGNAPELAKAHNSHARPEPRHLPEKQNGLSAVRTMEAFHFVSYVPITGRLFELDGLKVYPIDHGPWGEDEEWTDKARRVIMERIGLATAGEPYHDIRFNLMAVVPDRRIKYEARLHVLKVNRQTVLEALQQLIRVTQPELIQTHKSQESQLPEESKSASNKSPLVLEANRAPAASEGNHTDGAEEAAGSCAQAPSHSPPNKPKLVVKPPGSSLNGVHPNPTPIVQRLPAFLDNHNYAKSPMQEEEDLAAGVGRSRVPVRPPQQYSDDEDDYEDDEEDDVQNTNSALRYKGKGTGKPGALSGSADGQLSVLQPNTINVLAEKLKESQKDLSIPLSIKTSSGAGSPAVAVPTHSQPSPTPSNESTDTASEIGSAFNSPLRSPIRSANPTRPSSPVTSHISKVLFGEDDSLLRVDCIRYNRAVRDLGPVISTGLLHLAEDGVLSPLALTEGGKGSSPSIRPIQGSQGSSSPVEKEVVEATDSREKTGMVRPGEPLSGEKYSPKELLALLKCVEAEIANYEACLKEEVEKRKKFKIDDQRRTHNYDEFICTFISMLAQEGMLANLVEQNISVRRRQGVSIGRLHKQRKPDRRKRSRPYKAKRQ
# [10] = biological target: G-protein coupled receptor 55 (Homo sapiens, UniProt Q9Y2T6); assay: GPR55 agonists via beta-arrestin recruitment, primary screen, imaging, U2OS cells, beta-arrestin-GFP redistribution (AID 1961); type: functional
# Chain of G-protein coupled receptor 55 (Q9Y2T6 whole entry): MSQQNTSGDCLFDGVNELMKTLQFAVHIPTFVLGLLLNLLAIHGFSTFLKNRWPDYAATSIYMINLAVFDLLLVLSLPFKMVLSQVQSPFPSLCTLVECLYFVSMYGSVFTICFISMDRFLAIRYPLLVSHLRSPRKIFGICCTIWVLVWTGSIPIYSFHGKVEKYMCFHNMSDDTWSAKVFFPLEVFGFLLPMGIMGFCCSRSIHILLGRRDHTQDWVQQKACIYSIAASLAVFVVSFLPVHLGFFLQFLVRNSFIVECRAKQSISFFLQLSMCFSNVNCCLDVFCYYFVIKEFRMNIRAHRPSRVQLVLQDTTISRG
# INS1 = assay: beta cell apoptosis inhibitors, cytokine rescue, dose response, luminescence, retest (AID 449756); type: functional, cell-based; settings: Rattus norvegicus;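 note: cell death triggered by IL-1 beta plus TNF-alpha plus IFN-gamma mixture; protective hits raise ATP signal compared with cytokine alone wells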
# Large T antigen = Large T antigen (Simian virus 40, UniProt P03070); type: functional, Betapolyomavirus macacae;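 note: Confirmatory-stage PubChem screen for compounds that inhibit SV40 T antigen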
# Chain of Large T antigen (P03070 whole entry): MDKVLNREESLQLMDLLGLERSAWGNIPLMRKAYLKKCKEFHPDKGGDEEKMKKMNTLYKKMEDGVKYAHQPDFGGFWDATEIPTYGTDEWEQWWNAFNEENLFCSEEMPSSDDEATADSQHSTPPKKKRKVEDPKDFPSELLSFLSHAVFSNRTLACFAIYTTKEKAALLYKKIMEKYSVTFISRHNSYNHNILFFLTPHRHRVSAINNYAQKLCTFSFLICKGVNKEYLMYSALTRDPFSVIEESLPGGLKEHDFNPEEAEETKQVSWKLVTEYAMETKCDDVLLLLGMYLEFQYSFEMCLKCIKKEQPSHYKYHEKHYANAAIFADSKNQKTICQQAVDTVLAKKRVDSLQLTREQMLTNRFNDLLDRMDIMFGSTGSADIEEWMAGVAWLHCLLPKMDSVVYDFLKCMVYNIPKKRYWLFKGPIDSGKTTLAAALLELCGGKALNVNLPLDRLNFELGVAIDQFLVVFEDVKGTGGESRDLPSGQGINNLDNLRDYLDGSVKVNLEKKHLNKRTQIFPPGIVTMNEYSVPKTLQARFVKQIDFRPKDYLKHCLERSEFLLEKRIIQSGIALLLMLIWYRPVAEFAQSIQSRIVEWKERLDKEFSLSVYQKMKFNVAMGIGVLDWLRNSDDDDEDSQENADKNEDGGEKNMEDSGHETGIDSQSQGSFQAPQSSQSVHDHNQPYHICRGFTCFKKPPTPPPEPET
# [11] = biological target: Eukaryotic translation initiation factor 4E (Mus musculus, UniProt P63073); assay: eIF4E–eIF4G protein interaction inhibitors, dose response, biochemical, TR-FRET (AID 855); type: functional;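 note: potency for disrupting eIF4E binding to eIF4GI seen as loss of FRET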
# Chain of Eukaryotic translation initiation factor 4E (P63073 whole entry): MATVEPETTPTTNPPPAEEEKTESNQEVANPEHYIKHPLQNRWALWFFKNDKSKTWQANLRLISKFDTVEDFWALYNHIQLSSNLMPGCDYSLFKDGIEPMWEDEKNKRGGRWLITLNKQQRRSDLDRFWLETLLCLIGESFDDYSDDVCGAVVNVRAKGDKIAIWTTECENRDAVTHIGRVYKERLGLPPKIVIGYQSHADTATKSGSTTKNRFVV
structure (smiles),measurement,setting,value
Oc1c(Br)cc(Br)cc1CNc1ccccn1,EC50,[1],> 50 µM (active)
COc1ccc2[nH]c3c(NCc4ccco4)ncnc3c2c1,IC50,[2],19.3 µM (not active)
same,IC50,Insulin-degrading enzyme,21.2 µM (not active)
O=C1CC(Cc2ccccc2)C(=O)N1c1ccc(Cl)cn1 (centres undefined),EC50,[3],> 10 µM (not active)
O=C1c2ccccc2-c2onc3c(Oc4ccccc4)cc(O)c1c23,IC50,Estrogen receptor beta [4],37 µM (not active)
COc1ccc2c(=O)c3c(=O)n(Cc4ccco4)c(-c4ccco4)nc3oc2c1,IC50,[5],4.9 µM (active)
same,IC50,Estrogen receptor beta [6],> 50 µM (not active)
CCCOc1ccc(S(=O)(=O)n2cc(F)c(=O)[nH]c2=O)cc1,EC50,[1],> 50 µM (active)
COC(=O)c1c(NC(=O)Cc2cccs2)sc2c1CCCC2,IC50,Estrogen receptor beta [4],103 µM (not active)
same,EC50,[7],20.6 µM (active)
same,EC50,Streptokinase A,17.7 µM (active)
same,EC50,Streptococcus,> 150 µM (not active)
same,IC50,Estrogen receptor beta [6],4.51 µM (active)
same,IC50,[8],3.35 µM (active)
O=S(=O)(c1ccc2ccccc2c1)N1CCCCCC1,EC50,Mucolipin-3,1.71 µM (active)
same,EC50,Ion channel NompC,> 29.9 µM (not active)
O=C(c1ccc([N+](=O)[O-])cc1)n1nc(-c2ccccc2)nc1NCc1ccc(F)cc1,IC50,Prothrombin,0.464 µM (active)
O=c1c2cc(N3CCOCC3)ccc2[nH]c(=S)n1Cc1ccco1,IC50,Estrogen receptor beta [4],6.02 µM (not active)
same,IC50,Estrogen receptor beta [6],> 50 µM (not active)
COc1ccc(C(=O)C2CCN(CC(=O)Nc3cc(C)cc(C)c3)CC2)cc1,EC50,[1],> 50 µM (active)
CC1CCc2[nH]nc(C(=O)O)c2C1 (centres undefined),IC50,Prothrombin,> 50 µM (not active)
O=C(NCc1ccco1)c1cc2nc(-c3ccc4c(c3)OCO4)cc(C(F)(F)F)n2n1,IC50,[9],20.4 µM (active)
same,EC50,[10],> 32 µM (inactive)
CC1=CC(C)(C)N(C(=O)CSc2nnc(-c3ccc(C)cc3)o2)c2ccc(C)cc21,EC50,Mucolipin-3,7.81 µM (active)
same,AC50,INS1,14.8 µM (active)
same,EC50,Ion channel NompC,> 29.9 µM (not active)
COc1ccc(N2C(=O)CSC2c2cccc(OC)c2OC)cc1 (centres undefined),IC50,Prothrombin,> 50 µM (not active)
COc1ccc(C(=O)c2sc3nc(-c4ccccc4)ccc3c2N)cc1,IC50,[2],25.4 µM (not active)
same,IC50,Insulin-degrading enzyme,> 55.9 µM (not active)
O=c1/c(=C\c2cc([N+](=O)[O-])cc([N+](=O)[O-])c2O)sc2nc3ccccc3n12,IC50,Large T antigen,52.8 µM (active)
same,IC50,[2],> 55.7 µM (not active)
same,IC50,[11],50 µM (inactive)
same,IC50,Insulin-degrading enzyme,> 55.9 µM (not active)
same,IC50,[8],1.54 µM (active)
